Laboratory results: patent US5424456A, “N-arylalkylderivatives of 2-aminomethyl-2,3-dihydro-1,4-benzodioxine and the process of preparation thereof” (Vyzkumny Ustav Pro Farmacii A Biochemii s.p., priority 1991, dated 1995)

Tests used:
calcium channel = target: T1, calcium channel (Rattus norvegicus, UniProt P22002); experiment: Calcium channel blocking activity, K+ depolarization-induced contraction of helically cut rat aortic strip; details: Krebs-Henselheit solution, 37° C., cumulative doses, read-out: IC50 (50% decrease of contraction of the aortic strip)
T1 construct: helically cut rat aortic strip; from tissue; host or cells: rat aorta (helically cut strip)
T1 sequence (P22002 whole entry): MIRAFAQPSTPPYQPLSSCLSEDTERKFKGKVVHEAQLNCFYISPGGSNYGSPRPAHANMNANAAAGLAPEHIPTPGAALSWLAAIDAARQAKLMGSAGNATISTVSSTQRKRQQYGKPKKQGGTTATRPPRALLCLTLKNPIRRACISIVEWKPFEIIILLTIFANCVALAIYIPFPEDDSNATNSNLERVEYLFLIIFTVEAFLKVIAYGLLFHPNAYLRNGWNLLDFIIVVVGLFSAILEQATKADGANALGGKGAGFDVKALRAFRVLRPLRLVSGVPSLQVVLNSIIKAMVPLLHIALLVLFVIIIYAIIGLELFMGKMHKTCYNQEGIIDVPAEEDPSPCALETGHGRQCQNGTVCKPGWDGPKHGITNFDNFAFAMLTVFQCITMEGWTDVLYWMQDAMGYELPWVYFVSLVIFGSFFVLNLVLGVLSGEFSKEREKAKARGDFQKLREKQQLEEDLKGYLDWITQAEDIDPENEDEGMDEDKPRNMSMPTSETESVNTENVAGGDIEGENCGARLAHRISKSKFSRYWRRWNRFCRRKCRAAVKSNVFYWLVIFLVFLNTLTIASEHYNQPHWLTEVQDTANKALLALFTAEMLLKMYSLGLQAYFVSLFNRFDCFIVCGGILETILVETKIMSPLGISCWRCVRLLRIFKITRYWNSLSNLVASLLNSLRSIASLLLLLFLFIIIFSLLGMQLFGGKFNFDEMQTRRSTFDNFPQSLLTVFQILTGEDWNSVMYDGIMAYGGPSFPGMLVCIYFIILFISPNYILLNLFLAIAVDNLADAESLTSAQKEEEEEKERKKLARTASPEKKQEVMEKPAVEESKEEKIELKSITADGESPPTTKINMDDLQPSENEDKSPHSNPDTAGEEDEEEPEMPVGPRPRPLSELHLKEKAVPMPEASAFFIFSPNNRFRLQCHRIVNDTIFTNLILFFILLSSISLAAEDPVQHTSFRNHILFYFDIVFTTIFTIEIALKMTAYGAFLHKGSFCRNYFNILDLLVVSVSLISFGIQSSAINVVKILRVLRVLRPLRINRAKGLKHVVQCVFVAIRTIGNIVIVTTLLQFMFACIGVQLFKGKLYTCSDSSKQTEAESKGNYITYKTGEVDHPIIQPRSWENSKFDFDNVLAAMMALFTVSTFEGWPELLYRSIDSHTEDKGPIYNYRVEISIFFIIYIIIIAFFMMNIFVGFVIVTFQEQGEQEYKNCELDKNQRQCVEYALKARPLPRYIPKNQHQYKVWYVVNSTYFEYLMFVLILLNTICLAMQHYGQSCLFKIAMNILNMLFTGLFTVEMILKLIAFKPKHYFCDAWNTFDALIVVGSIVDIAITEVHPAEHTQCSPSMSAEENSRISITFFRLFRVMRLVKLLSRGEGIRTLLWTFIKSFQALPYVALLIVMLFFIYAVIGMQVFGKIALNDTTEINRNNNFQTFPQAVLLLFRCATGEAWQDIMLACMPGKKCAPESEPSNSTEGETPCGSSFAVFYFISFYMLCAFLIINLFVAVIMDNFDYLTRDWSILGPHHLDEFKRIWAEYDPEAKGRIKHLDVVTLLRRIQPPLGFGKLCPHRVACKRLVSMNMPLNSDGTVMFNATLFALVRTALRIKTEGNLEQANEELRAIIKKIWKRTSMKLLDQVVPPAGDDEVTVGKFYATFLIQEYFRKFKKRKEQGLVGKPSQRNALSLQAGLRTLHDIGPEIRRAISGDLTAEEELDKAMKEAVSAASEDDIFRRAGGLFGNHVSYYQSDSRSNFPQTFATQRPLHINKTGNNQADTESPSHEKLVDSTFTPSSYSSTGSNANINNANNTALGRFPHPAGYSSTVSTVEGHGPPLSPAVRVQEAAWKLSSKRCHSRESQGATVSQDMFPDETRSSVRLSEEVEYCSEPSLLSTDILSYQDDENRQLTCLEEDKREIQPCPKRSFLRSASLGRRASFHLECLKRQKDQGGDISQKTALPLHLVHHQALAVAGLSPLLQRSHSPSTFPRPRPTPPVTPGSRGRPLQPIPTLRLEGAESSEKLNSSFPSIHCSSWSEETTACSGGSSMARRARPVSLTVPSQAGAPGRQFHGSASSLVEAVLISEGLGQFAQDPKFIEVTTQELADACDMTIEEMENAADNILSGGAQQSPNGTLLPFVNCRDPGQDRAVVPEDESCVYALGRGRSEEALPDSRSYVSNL
T1 sequence (P54290 25-1091 partner): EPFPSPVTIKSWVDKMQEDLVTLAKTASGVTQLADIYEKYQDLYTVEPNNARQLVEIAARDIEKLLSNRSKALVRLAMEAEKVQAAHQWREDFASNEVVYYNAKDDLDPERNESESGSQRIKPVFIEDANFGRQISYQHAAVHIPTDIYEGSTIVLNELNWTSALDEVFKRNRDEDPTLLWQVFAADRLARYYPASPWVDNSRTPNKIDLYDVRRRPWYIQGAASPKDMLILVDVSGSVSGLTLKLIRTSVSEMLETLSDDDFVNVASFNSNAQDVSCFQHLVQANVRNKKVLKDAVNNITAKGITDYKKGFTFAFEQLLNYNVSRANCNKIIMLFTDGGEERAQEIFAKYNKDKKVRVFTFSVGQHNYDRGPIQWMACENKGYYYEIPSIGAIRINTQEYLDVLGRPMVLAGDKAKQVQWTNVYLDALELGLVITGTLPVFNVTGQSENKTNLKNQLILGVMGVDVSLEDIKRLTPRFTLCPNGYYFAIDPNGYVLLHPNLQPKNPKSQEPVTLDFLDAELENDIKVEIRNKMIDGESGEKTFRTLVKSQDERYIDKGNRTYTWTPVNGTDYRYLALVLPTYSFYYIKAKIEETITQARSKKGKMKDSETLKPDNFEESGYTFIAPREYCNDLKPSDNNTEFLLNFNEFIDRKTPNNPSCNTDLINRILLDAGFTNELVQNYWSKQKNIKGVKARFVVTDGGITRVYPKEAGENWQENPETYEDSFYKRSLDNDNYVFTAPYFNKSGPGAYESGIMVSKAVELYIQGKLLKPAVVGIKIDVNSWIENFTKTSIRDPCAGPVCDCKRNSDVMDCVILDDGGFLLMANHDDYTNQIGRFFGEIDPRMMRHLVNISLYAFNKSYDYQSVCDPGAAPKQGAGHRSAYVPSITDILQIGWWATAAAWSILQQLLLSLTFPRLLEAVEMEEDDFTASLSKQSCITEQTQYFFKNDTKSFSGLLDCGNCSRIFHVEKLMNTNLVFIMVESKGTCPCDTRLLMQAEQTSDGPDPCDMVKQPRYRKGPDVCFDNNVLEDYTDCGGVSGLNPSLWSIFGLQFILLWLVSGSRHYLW
Experimental: The calcium channel blocking activity of the compounds was tested using a helically cut rat aortic strip in Krebs-Henselheit solution at 37° C., bubbled with a mixture of 95% O2 and 5% CO2. The isometrically registered contractions were induced by K^(+). depolarization. The test compounds were applied in a cumulative doses and the vasodilating activity thereof was expressed in calculated concentration of the test compound, causing 50% decrease of contraction of the aortic strip (IC50).

blood pressure = experiment: Hypotensive activity, conscious monkeys; format: in vivo, Macaca mulatta
Experimental: c) The blood pressure of conscious monkeys (Macaca mulatta) was measured non-invasively on the arm. The average decrease in systolic (SBP) and diastolic (DBP) blood pressure after intravenous and oral administration was expressed in per cents of the starting blood pressure.

Row | Structure (SMILES) | IC50 (calcium channel) [µM] | decrease in diastolic blood pressure (DBP) (blood pressure; i.v., 0.25 mg/kg, 1 min) [per cents] | decrease in systolic blood pressure (SBP) (blood pressure; i.v., 0.25 mg/kg, 1 min) [per cents] | decrease in diastolic blood pressure (DBP) (blood pressure; i.v., 0.25 mg/kg, 5 min) [per cents] | decrease in systolic blood pressure (SBP) (blood pressure; i.v., 0.25 mg/kg, 5 min) [per cents] | decrease in diastolic blood pressure (DBP) (blood pressure; i.v., 0.25 mg/kg, 30 min) [per cents] | decrease in systolic blood pressure (SBP) (blood pressure; i.v., 0.25 mg/kg, 30 min) [per cents] | decrease in diastolic blood pressure (DBP) (blood pressure; i.v., 0.25 mg/kg, 60 min) [per cents] | decrease in systolic blood pressure (SBP) (blood pressure; i.v., 0.25 mg/kg, 60 min) [per cents] | decrease in diastolic blood pressure (DBP) (blood pressure; i.v., 0.25 mg/kg, 180 min) [per cents] | decrease in systolic blood pressure (SBP) (blood pressure; i.v., 0.25 mg/kg, 180 min) [per cents] | decrease in diastolic blood pressure (DBP) (blood pressure; i.v., 1.0 mg/kg, 1 min) [per cents] | decrease in systolic blood pressure (SBP) (blood pressure; i.v., 1.0 mg/kg, 1 min) [per cents] | decrease in diastolic blood pressure (DBP) (blood pressure; i.v., 1.0 mg/kg, 5 min) [per cents] | decrease in systolic blood pressure (SBP) (blood pressure; i.v., 1.0 mg/kg, 5 min) [per cents] | decrease in diastolic blood pressure (DBP) (blood pressure; i.v., 1.0 mg/kg, 30 min) [per cents] | decrease in systolic blood pressure (SBP) (blood pressure; i.v., 1.0 mg/kg, 30 min) [per cents] | decrease in diastolic blood pressure (DBP) (blood pressure; i.v., 1.0 mg/kg, 60 min) [per cents] | decrease in systolic blood pressure (SBP) (blood pressure; i.v., 1.0 mg/kg, 60 min) [per cents] | decrease in diastolic blood pressure (DBP) (blood pressure; i.v., 1.0 mg/kg, 180 min) [per cents] | other results
1 | COc1ccc(C(C#N)(CCCNCC2COc3ccccc3O2)C(C)C)cc1OC (racemic) [VUFB 17951, 5-(2,3-Dihydro-1,4-benzodioxin-2-ylmethylamino)-2-(3,4-dimethoxyphenyl)-2-isopropyl valeronitrile] | 18 | -49 | -37 | -50 | -45 | -31 | -28 | -17 | -11 | -18 | -8 | -58 | -50 | -60 | -53 | -46 | -39 | -30 | -29 | -23 | decrease in systolic blood pressure (SBP) (blood pressure; i.v., 1.0 mg/kg, 180 min): -19 per cents; decrease in diastolic blood pressure (DBP) (blood pressure; p.o., 10.0 mg/kg, 5-6 hours): -29 per cents; decrease in systolic blood pressure (SBP) (blood pressure; p.o., 10.0 mg/kg, 5-6 hours): -23 per cents; decrease in diastolic blood pressure (DBP) (blood pressure; p.o., 10.0 mg/kg, 0.5 hours): -30 per cents; decrease in systolic blood pressure (SBP) (blood pressure; p.o., 10.0 mg/kg, 0.5 hours): -26 per cents; decrease in diastolic blood pressure (DBP) (blood pressure; p.o., 10.0 mg/kg, 1 hours): -27 per cents; decrease in systolic blood pressure (SBP) (blood pressure; p.o., 10.0 mg/kg, 1 hours): -24 per cents; decrease in diastolic blood pressure (DBP) (blood pressure; p.o., 10.0 mg/kg, 3 hours): -26 per cents; decrease in systolic blood pressure (SBP) (blood pressure; p.o., 10.0 mg/kg, 3 hours): -21 per cents; decrease in diastolic blood pressure (DBP) (blood pressure; p.o., 10.0 mg/kg, 24 hours): -11 per cents; decrease in systolic blood pressure (SBP) (blood pressure; p.o., 10.0 mg/kg, 24 hours): -9 per cents
2 | Cc1ccccc1C(C#N)(CCCNCC1COc2ccccc2O1)C(C)C (racemic) [VUFB 17959, 5-(2,3-dihydro-1,4-benzodioxin-2-ylmethylamino)-2-isopropyl-2-(2-methylphenyl) valeronitrile] | 16 | -4 | -1 | -16 | -12 | -24 | -22 | -20 | -17 | -7 | -5 | -34 | -28 | -38 | -31 | -42 | -31 | -27 | -24 | -14 | decrease in systolic blood pressure (SBP) (blood pressure; i.v., 1.0 mg/kg, 180 min): -8 per cents; decrease in diastolic blood pressure (DBP) (blood pressure; p.o., 10.0 mg/kg, 5-6 hours): -10 per cents; decrease in systolic blood pressure (SBP) (blood pressure; p.o., 10.0 mg/kg, 5-6 hours): -11 per cents; decrease in diastolic blood pressure (DBP) (blood pressure; p.o., 10.0 mg/kg, 0.5 hours): -16 per cents; decrease in systolic blood pressure (SBP) (blood pressure; p.o., 10.0 mg/kg, 0.5 hours): -20 per cents; decrease in diastolic blood pressure (DBP) (blood pressure; p.o., 10.0 mg/kg, 1 hours): -15 per cents; decrease in systolic blood pressure (SBP) (blood pressure; p.o., 10.0 mg/kg, 1 hours): -15 per cents; decrease in diastolic blood pressure (DBP) (blood pressure; p.o., 10.0 mg/kg, 3 hours): -16 per cents; decrease in systolic blood pressure (SBP) (blood pressure; p.o., 10.0 mg/kg, 3 hours): -17 per cents; decrease in diastolic blood pressure (DBP) (blood pressure; p.o., 10.0 mg/kg, 24 hours): +5 per cents; decrease in systolic blood pressure (SBP) (blood pressure; p.o., 10.0 mg/kg, 24 hours): +1 per cents
